Assay results: patent US20220370451A1, “INHIBITORS OF HUMAN IMMUNODEFICIENCY VIRUS REPLICATION” (VIIV HEALTHCARE UK ( No. 5) LIMITED, priority 2019, published 2022)

Columns and labels:
[1] = test system: recombinant NL4-3 virus; experiment: HIV cell culture assay (luciferase reporter antiviral activity); type: cell-based; settings: Human immunodeficiency virus 1, NL43, MT2
Protocol: HIV cell culture assay—MT=2 cells, 293T cells and the proviral DNA clone of NL4-3 virus were obtained from the NIH AIDS Research and Reference Reagent Program. MT=2 cells were propagated in RPMI 1640 media supplemented with 10% heat inactivated fetal bovine serum (FBS), […] penicillin G and up to 100 units/mL streptomycin. The 293T cells were propagated in DMEM media supplemented with 10% heat inactivated FBS, […] penicillin G and […] streptomycin. A recombinant NL4-3 proviral clone, in which a section of the nef gene was replaced with the Renilla luciferase gene, was used to make the reference virus used in these studies. The recombinant virus was prepared through transfection of the recombinant NL4-3 proviral clone into 293T cells using Transit-293 Transfection Reagent from Mirus Bio LLC (Madison, Wis.). Supernatent was harvested after 2-3 days and the amount of virus present was titered in MT=2 cells using luciferase enzyme activity as a marker by measuring luciferase enzyme activity. Luciferase was quantitated using the EnduRen Live Cell Substrate from Promega (Madison, Wis.). Antiviral activities of compounds toward the recombinant virus were quantified by measuring luciferase activity in MT=2 cells infected for 4-5 days with the recombinant virus in the presence of serial dilutions of the compound.
The 50% effective concentration (EC50) was calculated by using the exponential form of the median effect equation where (Fa)=1/[1+(ED50/drug conc.)m] (Johnson V A, Byington RT. Infectivity Assay. In Techniques in HIV Research. ed. Aldovini A, Walker B D. 71-76. New York: Stockton Press.1990). The 50% inhibitory concentration (EC50) was calculated by using the exponential form of the median effect equation where percent inhibition=1/[1+(EC50/drug concentration)m], where m is a parameter that reflects the slope of the concentration-response curve.

[2] = Compound cytotoxicity, XTT-based colorimetric assay; type: cell-based; settings: human; uninfected MT2 cells, day 4, XTT
Protocol: Compound cytotoxicity and the corresponding CC50 values were determined using the same protocol as described in the antiviral assay except that uninfected cells were used. Cytotoxicity was assessed on day 4 in uninfected MT2 cells by using a XTT (2,3-bis[2-Methoxy-4-nitro-5-sulfophenyl]-2H-tetrazolium-5-carboxyanilide inner salt)-based colorimetric assay (Sigma-Aldrich, St Louis, Mo.).

SMILES | EC50 [1] | CC50 at 4 days [2]
Cc1nccnc1-c1ccc2c(=O)n(-c3ccc(Cl)c4c(NS(C)(=O)=O)nn(C)c34)c([C@H](Cc3cc(F)cc(F)c3)NC(=O)Cn3nc(C4CC4)cc3C)nc2c1 (atropisomer, axis not shown; (P)) [Example 10, (S)-N-(1-((3P)-3-(4-chloro-1-methyl-3-(methylsulfonamido)-1H-indazol-7-yl)-7-(3-methylpyrazin-2-yl)-4-oxo-3,4-dihydroquinazolin-2-yl)-2-(3,5-difluorophenyl)ethyl)-2-(3-cyclopropyl-5-methyl-1H-pyrazol-1-yl)acetamide] | 0.21 nM | > 500 nM
CC(C)(C(=O)N[C@@H](Cc1cc(F)cc(F)c1)c1nc2nc(-c3ccccc3F)ccc2c(=O)n1-c1ccc(Cl)c2c(NS(C)(=O)=O)nn(CC(F)F)c12)n1ccc(C2CC2)n1 (atropisomer, axis not shown; (P)) [Example 20] | 0.96 nM | > 500 nM
Cc1nccnc1-c1ccc2c(=O)n(-c3ccc(Cl)c4c(NS(C)(=O)=O)nn(C)c34)c([C@H](Cc3cc(F)cc(F)c3)NC(=O)Cn3nc(C(F)(F)F)cc3C)nc2c1 (atropisomer, axis not shown; (P)) [Example 12, (S)-N-(1-((3P)-3-(4-chloro-1-methyl-3-(methylsulfonamido)-1H-indazol-7-yl)-7-(3-methylpyrazin-2-yl)-4-oxo-3,4-dihydroquinazolin-2-yl)-2-(3,5-difluorophenyl)ethyl)-2-(5-methyl-3-(trifluoromethyl)-1H-pyrazol-1-yl)acetamide] | 0.49 nM | > 500 nM
Cn1nc(NS(C)(=O)=O)c2c(Cl)ccc(-n3c([C@H](Cc4cc(F)cc(F)c4)NC(=O)Cn4ccc(C(C)(C)C)n4)nc4nc(-c5ccccc5F)ccc4c3=O)c21 (atropisomer, axis not shown; (P)) [Example 14, (S)-2-(3-(tert-butyl)-1H-pyrazol-1-yl)-N-(1-((3P)-3-(4-chloro-1-methyl-3-(methylsulfonamido)-1H-indazol-7-yl)-7-(2-fluorophenyl)-4-oxo-3,4-dihydropyrido[2,3-d]pyrimidin-2-yl)-2-(3,5-difluorophenyl)ethyl)acetamide] | 0.53 nM | > 500 nM
Cn1nc(NS(C)(=O)=O)c2c(Cl)ccc(-n3c([C@H](Cc4cc(F)cc(F)c4)NC(=O)Cn4nc(C5CC5)c5ccccc54)nc4nc(-c5ccccc5F)ccc4c3=O)c21 (atropisomer, axis not shown; (P)) [Example 15, (S)-N-(1-((3P)-3-(4-chloro-1-methyl-3-(methylsulfonamido)-1H-indazol-7-yl)-7-(2-fluorophenyl)-4-oxo-3,4-dihydropyrido[2,3-d]pyrimidin-2-yl)-2-(3,5-difluorophenyl)ethyl)-2-(3-cyclopropyl-1H-indazol-1-yl)acetamide] | 0.17 nM | > 500 nM
Cc1nccnc1-c1ccc2c(=O)n(-c3ccc(Cl)c4c(NS(C)(=O)=O)nn(C)c34)c([C@H](Cc3cc(F)cc(F)c3)NC(=O)Cn3nc(C(F)(F)F)cc3C(F)(F)F)nc2c1 (atropisomer, axis not shown; (P)) [Example 1, (S)-2-(3,5-bis(trifluoromethyl)-1H-pyrazol-1-yl)-N-(1-((3P)-3-(4-chloro-1-methyl-3-(methylsulfonamido)-1H-indazol-7-yl)-7-(3-methylpyrazin-2-yl)-4-oxo-3,4-dihydroquinazolin-2-yl)-2-(3,5-difluorophenyl)ethyl)acetamide] | 1.9 nM | > 500 nM
CC(C)[C@H](C(=O)N[C@@H](Cc1cc(F)cc(F)c1)c1nc2nc(-c3ccccc3F)ccc2c(=O)n1-c1ccc(Cl)c2c(NS(=O)(=O)C3CC3)nn(CC(F)F)c12)n1ccc(C2CC2)n1 (atropisomer, axis not shown; (P)) [Example 24, N-((S)-1-((3P)-3-(4-chloro-3-(cyclopropanesulfonamido)-1-(2,2-difluoroethyl)-1H-indazol-7-yl)-7-(2-fluorophenyl)-4-oxo-3,4-dihydropyrido[2,3-d]pyrimidin-2-yl)-2-(3,5-difluorophenyl)ethyl)-2-(3-cyclopropyl-1H-pyrazol-1-yl)-3-methylbutanamide] | 3.9 nM | > 500 nM
Cc1nccnc1-c1ccc2c(=O)n(-c3ccc(Cl)c4c(NS(C)(=O)=O)nn(C)c34)c([C@H](Cc3cc(F)cc(F)c3)NC(=O)Cn3ccc(C4CCC4)n3)nc2c1 (atropisomer, axis not shown; (P)) [Example 11, (S)-N-(1-((3P)-3-(4-chloro-1-methyl-3-(methylsulfonamido)-1H-indazol-7-yl)-7-(3-methylpyrazin-2-yl)-4-oxo-3,4-dihydroquinazolin-2-yl)-2-(3,5-difluorophenyl)ethyl)-2-(3-cyclobutyl-1H-pyrazol-1-yl)acetamide] | 0.39 nM | > 500 nM
Cc1nccnc1-c1ccc2c(=O)n(-c3ccc(Cl)c4c(NS(=O)(=O)C5CC5)nn(CC(F)F)c34)c([C@H](Cc3cc(F)cc(F)c3)NC(=O)Cn3nc(C(F)F)cc3C3CC3)nc2c1 (atropisomer, axis not shown; (P)) [Example 35, (S)-N-(1-((3P)-3-(4-chloro-3-(cyclopropanesulfonamido)-1-(2,2-difluoroethyl)-1H-indazol-7-yl)-7-(3-methylpyrazin-2-yl)-4-oxo-3,4-dihydroquinazolin-2-yl)-2-(3,5-difluorophenyl)ethyl)-2-(5-cyclopropyl-3-(difluoromethyl)-1H-pyrazol-1-yl)acetamide] | 0.36 nM | > 500 nM
CC(C)(C(=O)N[C@@H](Cc1cc(F)cc(F)c1)c1nc2nc(-c3ccccc3F)ccc2c(=O)n1-c1ccc(Cl)c2c(NS(C)(=O)=O)nn(CC(F)(F)F)c12)n1ccc(C2CC2)n1 (atropisomer, axis not shown; (P)) [Example 22, (S)-N-(1-((3P)-3-(4-chloro-3-(methylsulfonamido)-1-(2,2,2-trifluoroethyl)-1H-indazol-7-yl)-7-(2-fluorophenyl)-4-oxo-3,4-dihydropyrido[2,3-d]pyrimidin-2-yl)-2-(3,5-difluorophenyl)ethyl)-2-(3-cyclopropyl-1H-pyrazol-1-yl)-2-methylpropanamide] | 0.8 nM | > 500 nM
Cc1nccnc1-c1ccc2c(=O)n(-c3ccc(Cl)c4c(NS(C)(=O)=O)nn(C)c34)c([C@H](Cc3cc(F)cc(F)c3)NC(=O)Cn3ccc(C(C)(C)C)n3)nc2c1 (atropisomer, axis not shown; (P)) [Example 5, (S)-2-(3-(tert-butyl)-1H-pyrazol-1-yl)-N-(1-((3P)-3-(4-chloro-1-methyl-3-(methylsulfonamido)-1H-indazol-7-yl)-7-(3-methylpyrazin-2-yl)-4-oxo-3,4-dihydroquinazolin-2-yl)-2-(3,5-difluorophenyl)ethyl)acetamide] | 0.65 nM | > 500 nM
CS(=O)(=O)Nc1nn(CC(F)F)c2c(-n3c([C@H](Cc4cc(F)cc(F)c4)NC(=O)Cn4nc(C5CC5)cc4C(F)F)nc4nc(-c5ccccc5F)ccc4c3=O)ccc(Cl)c12 (atropisomer, axis not shown; (P)) [Example 17, (S)-N-(1-((3P)-3-(4-chloro-1-(2,2-difluoroethyl)-3-(methylsulfonamido)-1H-indazol-7-yl)-7-(2-fluorophenyl)-4-oxo-3,4-dihydropyrido[2,3-d]pyrimidin-2-yl)-2-(3,5-difluorophenyl)ethyl)-2-(3-cyclopropyl-5-(difluoromethyl)-1H-pyrazol-1-yl)acetamide] | 0.52 nM | > 500 nM
Cn1nc(NS(C)(=O)=O)c2c(Cl)ccc(-n3c([C@H](Cc4cc(F)cc(F)c4)NC(=O)Cn4ccc5ccccc54)nc4cc(-c5ccccc5F)ccc4c3=O)c21 [Example 30, (S)-N-(1-((3P)-3-(4-chloro-1-methyl-3-(methylsulfonamido)-1H-indazol-7-yl)-7-(2-fluorophenyl)-4-oxo-3,4-dihydroquinazolin-2-yl)-2-(3,5-difluorophenyl)ethyl)-2-(1H-indol-1-yl)acetamide] | 3 nM | > 500 nM
Cc1nccnc1-c1ccc2c(=O)n(-c3ccc(C)c4c(NS(C)(=O)=O)nn(C)c34)c(C(Cc3cc(F)cc(F)c3)NC(=O)Cn3nc(C(F)F)c4c3C(F)(F)[C@@H]3C[C@H]43)nc2c1 (stereo partly drawn) [Example 6, 2-((3bS,4aR)-3-(difluoromethyl)-5,5-difluoro-3b,4,4a,5-tetrahydro-1H-cyclopropa[3,4]cyclopenta[1,2-c]pyrazol-1-yl)-N-((S)-2-(3,5-difluorophenyl)-1-(3-(1,4-dimethyl-3-(methylsulfonamido)-1H-indazol-7-yl)-(3P)-7-(3-methylpyrazin-2-yl)-4-oxo-3,4-dihydroquinazolin-2-yl)ethyl)acetamide] | 0.056 nM | > 500 nM
